# US8039486B2, “Indole, azaindole and related heterocyclic N-substituted piperazine derivatives” (priority 2003, dated 2011)
# Test system: HIV-1 single-round infectious reporter virus
# Assay: Single-round infectious HIV-1 luciferase reporter virus infection of HeLa CD4 cells
# Format: cell-based
# Conditions: Human immunodeficiency virus 1, HeLa, 72 h, read-out: EC50 Group from Table 1
# Description: • Virus production—Human embryonic Kidney cell line, 293, was propagated in Dulbecco's Modified Eagle Medium (Invitrogen, Carlsbad, Calif.) containing 10% fetal Bovine serum (FBS, Sigma, St. Louis, Mo.). • Virus infection—Human epithelial cell line, HeLa, expressing the HIV-1 receptor CD4 was propagated in Dulbecco's Modified Eagle Medium (Invitrogen, Carlsbad, Calif.) containing 10% fetal Bovine serum (FBS, Sigma, St. Louis, Mo.) and supplemented with 0.2 mg/mL Geneticin (Invitrogen, Carlsbad, Calif.). Virus-Single-round infectious reporter virus was produced by co-transfecting human embryonic Kidney 293 cells with an HIV-1 envelope DNA expression vector and a proviral cDNA containing an envelope deletion mutation and the luciferase reporter gene inserted in place of HIV-1 nef sequences (Chen et al, Ref 41). Transfections were performed using lipofectAMINE PLUS reagent as described by the manufacturer (Invitrogen, Carlsbad, Calif.). Experiment • 1. HeLa CD4 cells were plated in 96 well plates at a cell density of 1×10^4 cells per well in 100 μl Dulbecco's Modified Eagle Medium containing 10% fetal Bovine serum and incubated overnight. • 2. Compound was added in a 2 μl dimethylsulfoxide solution, so that the final assay concentration would be ≦10 μM. • 3. 100 μl of single-round infectious reporter virus in Dulbecco's Modified Eagle Medium was then added to the plated cells and compound at an approximate multiplicity of infection (MOI) of 0.01, resulting in a final volume of 200 μl per well. • 4. Virally-infected cells were incubated at 37 degrees Celsius, in a CO2 incubator, and harvested 72 h after infection. • 5. Viral infection was monitored by measuring luciferase expression from viral DNA in the infected cells using a luciferase reporter gene assay kit, as described by the manufacturer (Roche Molecular Biochemicals, Indianapolis, Ind.). Infected cell supernatants were removed and 50 μl of lysis buffer was added per well. After 15 minutes, 50 μl of freshly-reconstituted luciferase assay reagent was added per well. Luciferase activity was then quantified by measuring luminescence using a Wallac microbeta scintillation counter. • 6. The percent inhibition for each compound was calculated by quantifying the level of luciferase expression in cells infected in the presence of each compound as a percentage of that observed for cells infected in the absence of compound and subtracting such a determined value from 100. • 7. An EC50 provides a method for comparing the antiviral potency of the compounds of this invention. The effective concentration for fifty percent inhibition (EC50) was calculated with the Microsoft Excel Xlfit curve fitting software. For each compound, curves were generated from percent inhibition calculated at 10 different concentrations by using a four paramenter logistic model (model 205). Table 1 is the key for the data in Table 2. Results
row,Structure (SMILES),EC50 [nM]
1,O=C(C(=O)N1CCN(c2nccc3ccccc23)CC1)c1c[nH]c2c(-c3ncon3)ccc(F)c12 [Example 1],< 1000
2,O=C(C(=O)N1CCN(c2nccc3ccoc23)CC1)c1c[nH]c2c(-c3ncon3)ccc(F)c12 [Example 2],< 1000
3,O=C(C(=O)N1CCN(c2ncnc3ccccc23)CC1)c1c[nH]c2c(-c3ncon3)ccc(F)c12 [Example 3],< 1000
4,COc1ccc(Br)c2[nH]cc(C(=O)C(=O)N3CCN(c4nccc5ccccc45)CC3)c12 [Example 4],< 1000
5,COc1ccc(-n2ccnc2)c2[nH]cc(C(=O)C(=O)N3CCN(c4nccc5ccccc45)CC3)c12 [Example 5],< 1000
6,COc1ccc(-n2cccc2)c2[nH]cc(C(=O)C(=O)N3CCN(c4nccc5ccccc45)CC3)c12 [Example 6],< 1000
7,COc1cnc(C#N)c2[nH]cc(C(=O)C(=O)N3CCN(c4nccc5ccccc45)CC3)c12 [Example 7],< 1000
8,COc1ncc(OC)c2c(C(=O)C(=O)N3CCN(c4ncnc5ccccc45)CC3)c[nH]c12 [Example 9],< 1000
9,COc1ccc(-c2nc(C)n[nH]2)c2[nH]cc(C(=O)C(=O)N3CCN(c4nccc5ccccc45)CC3)c12 [Example 11],< 1000
10,COc1ccc(C(N)=O)c2[nH]cc(C(=O)C(=O)N3CCN(c4nccc5ccccc45)CC3)c12 [Example 12],< 1000
11,CCOC(=O)c1ccc(OC)c2c(C(=O)C(=O)N3CCN(c4nccc5ccccc45)CC3)c[nH]c12 [Example 13],< 1000
12,COc1ccc(/C(N)=N\O)c2[nH]cc(C(=O)C(=O)N3CCN(c4nccc5ccccc45)CC3)c12 [Example 14],< 1000
13,COc1ccc(-c2nn[nH]n2)c2[nH]cc(C(=O)C(=O)N3CCN(c4nccc5ccccc45)CC3)c12 [Example 15],< 1000
14,COc1ccc(-c2nnn(C)n2)c2[nH]cc(C(=O)C(=O)N3CCN(c4nccc5ccccc45)CC3)c12 [Example 16],< 1000
15,COc1ccc(-c2ncon2)c2[nH]cc(C(=O)C(=O)N3CCN(c4nccc5ccccc45)CC3)c12 [Example 17],< 1000
16,COc1ccc(C(=N)NC2CC2)c2[nH]cc(C(=O)C(=O)N3CCN(c4nccc5ccccc45)CC3)c12 [Example 18],< 1000
17,COc1ccc(-c2nc3ccccc3[nH]2)c2[nH]cc(C(=O)C(=O)N3CCN(c4nccc5ccccc45)CC3)c12 [Example 19],< 1000
18,COc1ccc(-c2noc(C)n2)c2[nH]cc(C(=O)C(=O)N3CCN(c4nccc5ccccc45)CC3)c12 [Example 20],< 1000
19,COc1ccc(-c2ncn[nH]2)c2[nH]cc(C(=O)C(=O)N3CCN(c4nccc5ccccc45)CC3)c12 [Example 21],< 1000
20,COc1ccc(-c2nc(-c3cccnc3)n[nH]2)c2[nH]cc(C(=O)C(=O)N3CCN(c4nccc5ccccc45)CC3)c12 [Example 22],< 1000

row,Structure (SMILES),EC50 [nM]
1,COc1ccc(C(=N)NNC(=O)c2cccnc2)c2[nH]cc(C(=O)C(=O)N3CCN(c4nccc5ccccc45)CC3)c12 [Example 23],< 1000
2,COc1ccc(-c2nc(CC#N)n[nH]2)c2[nH]cc(C(=O)C(=O)N3CCN(c4nccc5ccccc45)CC3)c12 [Example 24],< 1000
3,COc1ccc(C(=N)NNC(=O)CC#N)c2[nH]cc(C(=O)C(=O)N3CCN(c4nccc5ccccc45)CC3)c12 [Example 25],< 1000
4,COC(=O)Cn1nnc(-c2ccc(OC)c3c(C(=O)C(=O)N4CCN(c5nccc6ccccc56)CC4)c[nH]c23)n1 [Example 26],< 1000
5,COc1ccc(-c2nnn(CC(=O)O)n2)c2[nH]cc(C(=O)C(=O)N3CCN(c4nccc5ccccc45)CC3)c12 [Example 27],< 1000
6,CNC(=O)Cn1nnc(-c2ccc(OC)c3c(C(=O)C(=O)N4CCN(c5nccc6ccccc56)CC4)c[nH]c23)n1 [Example 28],< 1000
7,COc1ccc(-c2nnn(CC(N)=O)n2)c2[nH]cc(C(=O)C(=O)N3CCN(c4nccc5ccccc45)CC3)c12 [Example 29],< 1000
8,COc1ccc(-c2cnccn2)c2[nH]cc(C(=O)C(=O)N3CCN(c4nccc5ccccc45)CC3)c12 [Example 30],< 1000
9,COc1ccc(-n2cncn2)c2[nH]cc(C(=O)C(=O)N3CCN(c4nccc5ccccc45)CC3)c12 [Example 31],< 1000
10,COC(=O)Cc1n[nH]c(-c2ccc(OC)c3c(C(=O)C(=O)N4CCN(c5nccc6ccccc56)CC4)c[nH]c23)n1 [Example 32],< 1000
11,COc1ccc(-c2nc(CC(=O)O)n[nH]2)c2[nH]cc(C(=O)C(=O)N3CCN(c4nccc5ccccc45)CC3)c12 [Example 33],< 1000
12,CNC(=O)Cc1n[nH]c(-c2ccc(OC)c3c(C(=O)C(=O)N4CCN(c5nccc6ccccc56)CC4)c[nH]c23)n1 [Example 34],< 1000
13,COc1ccc(-c2nc(CC(N)=O)n[nH]2)c2[nH]cc(C(=O)C(=O)N3CCN(c4nccc5ccccc45)CC3)c12 [Example 35],< 1000
14,COc1cnc(-n2cncn2)c2[nH]cc(C(=O)C(=O)N3CCN(c4nccc5ccccc45)CC3)c12 [Example 36],< 1000
15,O=C(C(=O)N1CCN(c2nccc3ccccc23)CC1)c1c[nH]c2c(Cl)ccnc12 [Example 37],< 1000
16,O=C(C(=O)N1CCN(c2nccc3ccccc23)CC1)c1c[nH]c2c(-c3nccs3)ccnc12 [Example 38],< 1000
17,COc1cnc(-n2cnc(C)n2)c2[nH]cc(C(=O)C(=O)N3CCN(c4ccnc5ccccc45)CC3)c12 [Example 39],< 1000
18,Cc1cc(N2CCN(C(=O)C(=O)c3c[nH]c4c(-c5ncon5)ccc(F)c34)CC2)c2ccccc2n1 [Example 40],< 1000
19,COc1ccc(C#N)c2[nH]cc(C(=O)C(=O)N3CCN(c4nccc5ccccc45)CC3)c12 [Example 43],< 1000
20,COc1ccc(C#N)c2[nH]cc(C(=O)C(=O)N3CCN(c4ncnc5ccccc45)CC3)c12 [Example 44],< 1000

row,Structure (SMILES),EC50 [nM]
1,COc1cnc(C#N)c2[nH]cc(C(=O)C(=O)N3CCN(c4ncnc5ccccc45)CC3)c12 [Example 45],< 1000
2,COc1cnc(-n2cnc(C)n2)c2[nH]cc(C(=O)C(=O)N3CCN(c4ncnc5ccccc45)CC3)c12 [Example 46],< 1000
3,COc1cnc(-n2cncn2)c2[nH]cc(C(=O)C(=O)N3CCN(c4ncnc5ccccc45)CC3)c12 [Example 47],< 1000
4,O=C(C(=O)N1CCN(c2ncnc3ccccc23)CC1)c1c[nH]c2c(-n3ccnn3)ncc(F)c12 [Example 48],< 1000
5,COc1cnc(C(N)=O)c2[nH]cc(C(=O)C(=O)N3CCN(c4ncnc5ccccc45)CC3)c12 [Example 49],< 1000
6,COc1cnc(C(=O)O)c2[nH]cc(C(=O)C(=O)N3CCN(c4ncnc5ccccc45)CC3)c12 [Example 50],< 1000
7,COc1cnc(-n2nccn2)c2[nH]cc(C(=O)C(=O)N3CCN(c4ncnc5ccccc45)CC3)c12 [Example 51],< 1000
8,COc1cnc(-n2ccnn2)c2[nH]cc(C(=O)C(=O)N3CCN(c4ncnc5ccccc45)CC3)c12 [Example 52],< 1000
9,COc1cnc(Br)c2[nH]cc(C(=O)C(=O)N3CCN(c4ncnc5ccccc45)CC3)c12 [Example 53],< 1000
10,COc1cnc(-n2ccnn2)c2[nH]cc(C(=O)C(=O)N3CCN(c4nncc5ccccc45)CC3)c12 [Example 54],< 1000
11,COc1cnc(-n2cnc(C)n2)c2[nH]cc(C(=O)C(=O)N3CCN(c4nncc5ccccc45)CC3)c12 [Example 55],< 1000
12,O=C(C(=O)N1CCN(c2nncc3ccccc23)CC1)c1c[nH]c2c(-n3ccnn3)ncc(F)c12 [Example 56],< 1000
13,COc1nnc(N2CCN(C(=O)C(=O)c3c[nH]c4c(-n5cnc(C)n5)ncc(OC)c34)CC2)c2ccccc12 [Example 57],< 1000
14,COc1cnc(-n2cnc(C)n2)c2[nH]cc(C(=O)C(=O)N3CCN(c4nnc(O)c5ccccc45)CC3)c12 [Example 58],< 1000
15,Cc1nc(N2CCN(C(=O)C(=O)c3c[nH]c4c(-n5ccnn5)ncc(F)c34)CC2)c2ccccc2n1 [Example 59],< 1000
16,COc1cnc(-n2cnc(C)n2)c2[nH]cc(C(=O)C(=O)N3CCN(c4nc(C)nc5ccccc45)CC3)c12 [Example 60],< 1000
17,COc1cnc(-n2ccnn2)c2[nH]cc(C(=O)C(=O)N3CCN(c4nc(C)nc5ccccc45)CC3)c12 [Example 61],< 1000
18,COc1cnc(Br)c2[nH]cc(C(=O)C(=O)N3CCN(c4nncc5ccccc45)CC3)c12 [Example 62],< 1000
19,COc1cnc(C(N)=O)c2[nH]cc(C(=O)C(=O)N3CCN(c4nncc5ccccc45)CC3)c12 [Example 64],< 1000
